Reference: patent US20230090247A1, “MOLECULES TARGETING RAS PROTEIN” (AELIN THERAPEUTICS, priority 2020, published 2023)
Ends that are not written are not given here.

Test system: HeLa cells overexpressing mCherry-tagged KRAS G12V
Experiment: Cellular fluorescent imaging in HeLa cells overexpressing mCherry-tagged KRAS G12V
Assay type: cell-based, human
Details: 75 min after treatment with the FITC-labeled pept-in
Method: FIG. 7 illustrates cellular co-localization between mCherry-labeled KRAS and FITC-labeled RAS-targeting molecules (‘pept-ins’) according to certain embodiments of the present invention.
Fluorescent cellular imaging was performed using HeLa cells that were transduced with lentiviral particles carrying a construct expressing KRAS G12V labeled N-terminally with mCherry. Cells were seeded in a black μClear® Cellstar® F-bottom 96-well plates (Greiner) in […] full growth medium. […] Next, cells were fixed, washed and counterstained with the nuclear dye NucBlue™ (containing Hoechst 33342). Images were captured on a Leica confocal microscope.
To complement the co-immunoprecipitation approach, we also used a cellular imaging approach to show target engagement. To this end, we generated a HeLa cell line overexpressing mCherry-tagged KRAS G12V and FITC-labelled versions of the RAS-targeting pept-ins.

## 04-015-N032: FITC-labelled version of pept-in 04-015-N001 (KVVVGAVGKGSKVVVGAVGK; not fully specified (C-terminus); also: FITC-labelled, site not given here)
  association with mCherry-labelled KRAS (inclusion-like perinuclear structures): associates with mCherry-labelled KRAS
